Our source for the TGI values is PubChem BioAssay (NCI).

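These data come from cells grown in 96-well plates and exposed to compound for 48 hours at five concentrations. TGI is the concentration that stops growth completely.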 Where a SMILES comes first, the peptide text is derived from it. The star is where a group is joined. Fmoc = O=C(OCC1c2ccccc2-c2ccccc21)*; OtBu = CC(C)(C)O*

Assay in all cases: growth of human tumour cells (NCI), 48 h
Assay [1] relates to HCT-116 colon.
Assay [2] has as its system OVCAR-5 ovarian.
In assay [3] the test system is HOP-92 NSCLC.
The subject of assay [4] is RPMI-8226 leukemia.
Assay [5] relates to M14 melanoma.
The subject of assay [6] is DU-145 prostate.
The test system of assay [7] is KM12 colon.
The subject of assay [8] is NCI-H460 lung.
The subject of assay [9] is HT29 colon.
Assay [10] deals with EKVX NSCLC.

`COc1ccc(C(CC2(c3ccc(OC)cc3)SCCCS2)NC(C)=O)cc1` (centres undefined): the TGI in assay [1], in assay [2], in [3], in assay [4], in assay [5] and in assay [6] was above 100 µM each time. Besides, the TGI in [7], in assay [8], in assay [9] and in [10] was above 100 µM throughout.
As to `CC(C)C(NC(=O)OCC1c2ccccc2-c2ccccc21)C(=O)NC(CCC(=O)OC(C)(C)C)C(=O)OC(C)(C)C` (centres undefined) (Fmoc-Val-Glu(OtBu)-OtBu; configuration not given here), the TGI in assay [1], in assay [2], in [3], in assay [4], in assay [5] and in assay [6] was above 100 µM each time. Besides, the TGI in assay [7], in assay [8], in assay [9] and in assay [10] was above 100 µM in each case.
As for `CC(C)[N+]([O-])(CCCNc1c2ccccc2nc2cccc([N+](=O)[O-])c12)C(C)C`, the TGI was found to be 3.94 µM in assay [1]; 1.31 µM in assay [2]; 0.196 µM in assay [3]; 0.0875 µM in assay [4]; 0.305 µM in assay [5]; 0.133 µM in [6]. In addition, the TGI turned out to be 2.53 µM in assay [7], 1.78 µM in assay [8], 1.93 µM in assay [9] and 0.528 µM in assay [10].
In the case of `Nc1nc(Cl)cc(NCC2(O)CCC2)n1`, the TGI in [1], in assay [2], in [3], in assay [4], in [6] and in assay [7] was above 100 µM each time. In addition, the TGI in [8], in assay [9] and in assay [10] was above 100 µM each time.
`CCOC1OC(COC(=O)C(C)(C)C)C(O)CC1n1cc(C)c(=O)[nH]c1=O` (centres undefined): the TGI in assay [1], in assay [2], in [3], in assay [4], in assay [5] and in assay [6] was above 100 µM in each case. The TGI in assay [7], in assay [8], in assay [9] and in [10] was above 100 µM throughout.
As for `COc1ccc(S(=O)(=O)N2C(=O)CCC2C(=O)NC(N)=O)cc1` (centres undefined), the TGI in assay [1], in [2], in [3], in assay [4], in [5] and in [6] was above 100 µM in each case. For the same compound, the TGI in [7], in assay [8], in [9] and in assay [10] was above 100 µM in each case.
Take `O=C1/C(=C/c2cccc(Cl)c2)CCCc2ccccc21`: the TGI in [1] stood at 26.1 µM; in assay [2], 31.2 µM; in assay [3], 60.4 µM; in assay [4], 42.5 µM; in assay [5], 29.9 µM; in [6], 40.2 µM. For the same compound, the TGI in [7] stood at 32.3 µM; in assay [8], 31.2 µM; in [9], 30.9 µM; in [10], 35.9 µM.
As for `CC1=NN(c2cccc(Cl)c2)C2(SCC(=O)N2c2nc3ccccc3s2)C1=CC=Cc1ccccc1` (centres undefined), the TGI in [1] is 73.7 µM; in assay [2] it was above 100 µM; in [3], 45.5 µM; in assay [4] it was above 100 µM; in [5] it was above 100 µM; in assay [6], 68.6 µM. The TGI in [7], in [8], in assay [9] and in assay [10] was above 100 µM each time.
For the compound `O=C1NC2c3c(I)sc(I)c3C(=O)C2O1` (centres undefined), the TGI in assay [1] turned out to be 6.87 µM; in assay [2], 28.3 µM; in [3], 10.1 µM; in assay [4], 34.1 µM; in [5] it was 5.23 µM; in assay [6] it was 31 µM. In addition, the TGI is 24.3 µM in assay [7], 32.9 µM in [8], 3.25 µM in assay [9] and 16.5 µM in [10].
For `Oc1c(Br)cc(/C=C/c2ccnc(/C=C/c3cc(Br)c(O)c(Br)c3)c2)cc1Br`, the TGI was 30.7 µM in assay [1]; 55.3 µM in [2]; above 100 µM in assay [3]; 51.6 µM in assay [4]; 54.9 µM in [5]; 39.1 µM in assay [6]. Moreover, the TGI in assay [7] was 38.7 µM; in [8], above 100 µM; in assay [9] it was 40.2 µM; in [10] it was 56.4 µM.
Consider `CCN1CCC(O)(c2ccc(Oc3ccc(Cl)cc3)cc2)C(C(=O)c2ccc(Oc3ccc(Cl)cc3)cc2)C1` (centres undefined), for which the TGI in assay [1] worked out at 12.6 µM; in assay [2], 26.4 µM; in [3] it was 24.8 µM; in [4] it was 10.9 µM; in [5], 28.3 µM; in assay [6], 34.3 µM. The TGI in assay [7] is 14.9 µM; in [8], 14.9 µM; in assay [9] it was 17.7 µM; in [10], 34.5 µM.
Regarding `CCOC(=O)C1(C#N)OC(=O)c2cnccc21` (centres undefined), the TGI in assay [1], in [2], in assay [3], in [4], in assay [5] and in [6] was above 100 µM throughout. Moreover, the TGI in [7], in assay [8], in assay [9] and in [10] was above 100 µM each time.
As to `CC(=O)OCCn1cnc2c(NCC=C(C)C)ncnc21`, the TGI in [1], in assay [2], in [3], in assay [4], in [5] and in assay [6] was above 100 µM each time. Moreover, the TGI in assay [7], in assay [8], in [9] and in assay [10] was above 100 µM in each case.
